Measured values reported in ChEMBL document CHEMBL5584278, “Deciphering the Selectivity of CBL-B Inhibitors Using All-Atom Molecular Dynamics and Machine Learning” (ACS Med Chem Lett, 2024).

Columns and labels:
[1] = target: E3 ubiquitin-protein ligase CBL-B (Homo sapiens, UniProt Q13191); test: Inhibition of CBL-B (unknown origin)
Homo sapiens = species: Homo sapiens; test: Selectivity ratio of IC50 for c-CBL (unknown origin) to IC50 for CBL-B (unknown origin)
[2] = Inhibition of C-CBL (unknown origin); set-up: species or system Homo sapiens

Sequence of E3 ubiquitin-protein ligase CBL-B (Q13191 whole entry): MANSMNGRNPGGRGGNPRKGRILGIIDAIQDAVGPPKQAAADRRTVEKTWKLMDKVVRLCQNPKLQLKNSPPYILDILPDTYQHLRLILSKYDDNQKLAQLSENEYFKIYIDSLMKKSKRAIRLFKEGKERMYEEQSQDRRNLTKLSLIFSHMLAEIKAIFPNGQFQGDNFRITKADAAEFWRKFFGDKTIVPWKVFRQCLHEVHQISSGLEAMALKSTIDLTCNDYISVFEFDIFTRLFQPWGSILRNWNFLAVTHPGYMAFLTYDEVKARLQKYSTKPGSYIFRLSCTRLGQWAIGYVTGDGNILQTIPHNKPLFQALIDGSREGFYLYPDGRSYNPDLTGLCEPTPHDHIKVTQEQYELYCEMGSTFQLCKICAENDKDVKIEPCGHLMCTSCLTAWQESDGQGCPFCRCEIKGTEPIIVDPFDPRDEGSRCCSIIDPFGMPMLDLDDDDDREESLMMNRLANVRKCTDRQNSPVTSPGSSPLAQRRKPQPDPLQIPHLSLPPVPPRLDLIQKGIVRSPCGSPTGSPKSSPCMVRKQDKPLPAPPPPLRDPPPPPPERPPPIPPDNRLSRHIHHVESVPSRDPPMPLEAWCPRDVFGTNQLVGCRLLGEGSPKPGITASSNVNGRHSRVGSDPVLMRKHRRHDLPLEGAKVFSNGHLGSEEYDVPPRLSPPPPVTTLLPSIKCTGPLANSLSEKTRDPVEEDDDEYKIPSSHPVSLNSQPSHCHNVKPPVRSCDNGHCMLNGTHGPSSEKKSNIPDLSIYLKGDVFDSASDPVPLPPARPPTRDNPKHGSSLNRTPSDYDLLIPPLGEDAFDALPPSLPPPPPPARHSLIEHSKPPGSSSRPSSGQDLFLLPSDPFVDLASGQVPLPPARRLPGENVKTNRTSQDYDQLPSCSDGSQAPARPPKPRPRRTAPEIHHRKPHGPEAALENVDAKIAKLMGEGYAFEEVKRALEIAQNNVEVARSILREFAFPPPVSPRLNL

Row | SMILES | IC50 [1] [µM] | Ratio IC50 (Homo sapiens) | IC50 [2] [µM]
1 | CC1CC(c2cccc(-c3nc4cc(CN5CCC[C@H](C)C5)cc(C(F)(F)F)c4[nH]3)c2)(c2nncn2C)C1 (some centres not stated) | ~0.2 |  | 
2 | COCCNCc1cc(C(F)(F)F)c2oc(-c3cccc(-c4ccc(F)cc4-c4nncn4C)c3)nc2c1 | ~0.2 | 50 | ~10
3 | CC1CC(c2cccc(-c3nc4c(C(F)(F)F)cc(CN5CCC[C@H](C)C5)cc4[nH]3)c2)(c2nncn2C)C1 (some centres not stated) |  | 50 | ~10
4 | CO[C@H]1C[C@@](c2cccc(N3Cc4c(cc(CNC5(C)CCC5)cc4C(F)F)C3=O)c2)(c2nncn2C)C1 | ~0.025 | 6 | ~0.15
5 | C[C@H](c1cc(C(F)(F)F)c2nc(-c3cccc(CC4(c5nncn5C)COC4)c3)[nH]c2c1)N1CCC2(CC2)C1 | ~0.2 | 50 | ~10
6 | Cn1cnnc1[C@H](c1cccc(N2Cc3c(Cl)cc(CNC4(C)CCC4)cc3C2=O)c1)[C@H]1C[C@@H](F)C1 | ~0.17 | 6.5 | ~1.1
7 | Cn1cnnc1C1(c2cccc(N3Cc4c(cc(CNC5(C)CCC5)cc4C(F)(F)F)C3=O)c2)CC2(CC(F)(F)C2)C1 | ~0.021 | 6 | ~0.12

The next lines start with the values.

Row | IC50 [1] [µM] | Ratio IC50 (Homo sapiens) | IC50 [2] [µM] | SMILES
8 | ~0.006 | 10 | ~0.06 | Cn1cnnc1CC1(c2cccc(N3CC4=C(C(F)(F)F)C=C(CN5CCC(C)(F)CC5)CN4C3=O)c2)COC1
9 | ~0.005 | 4 | ~0.02 | CC1CC(c2cccc(N3Cc4c(cc(CN5CCC[C@H](C)C5)cc4C(F)(F)F)C3=O)c2)(c2nncn2C)C1 (some centres not stated)
10 | ~0.0165 | 10 | ~0.165 | CC1CC(c2cccc(N3C(=O)c4cc(CNC5(C)CCC5)cc5c(F)ccc3c45)c2)(c2nncn2C)C1 (configuration not stated)
